Experimental data published in patent US10590143B2, “Herbicidally active (alkynyl-phenyl)-substituted cyclic dione compounds and derivatives thereof” (Syngenta Limited, priority 2013, dated 2020).
Where two headings read alike, the source gives them in different places.

Key:
Type in all cases: in vivo
[1] = tested on: Abutilon theophrasti (ABUTH); assay: Biological Example 1 glasshouse assay for herbicidal activity; conditions: 312 h, 13 days after application, read-out: percentage phytotoxicity ABUTH
Experimental: (§1) Seeds of a variety of test plant species were sown in standard soil** in pots. After cultivation for one day (pre-emergence) or after 8 days cultivation (post-emergence) under controlled conditions in a glasshouse (at 24/16° C., day/night; 14 hours light; 65% humidity), the plants were sprayed with an aqueous spray solution derived from the formulation of the technical active ingredient (the test herbicide) in acetone/water (50:50) solution containing 0.5% Tween 20 (polyoxyethylene sorbitan monolaurate, CAS Reg. No. 9005-64-5). The test plants were then grown on under controlled conditions in a glasshouse (at 24/16° C., day/night; 14 hours light; 65% humidity) and watered twice daily. 13 Days after application of the test herbicide, for pre- and post-emergence, the test was evaluated visually for percentage phytotoxicity to each plant (where 100%=total damage to plant; 0%=no damage to plant). Generally, each test herbicide is only tested on 1 plant per plant species for each application rate tested and for each application timing. **The “standard soil” in Biological Example 1 is usually a “sand” or “sandy loam” type of soil.
(§2) Dicotyledonous weeds: ABUTH=Abutilon theophrasti; AMARE=Amaranthus retroflexus. Grassy monocotyledonous weeds: SETFA=Setaria faberi; ALOMY=Alopecurus myosuroides; ECHCG=Echinochloa crus-galli; ZEAMX=Zea mays (corn, maize, e.g. volunteer corn).

[2] = tested on: Alopecurus myosuroides (ALOMY); assay: as above; conditions: 312 h, 13 days after application, read-out: percentage phytotoxicity ALOMY
Experimental: as §1, §2

[3] = tested on: Amaranthus retroflexus (AMARE); assay: as above; conditions: Amaranthus retroflexus, 312 h, 13 days after application, read-out: percentage phytotoxicity AMARE
Experimental: as §1, §2

[4] = tested on: Echinochloa crus-galli (ECHCG); assay: as above; conditions: Echinochloa crus-galli, 312 h, 13 days after application, read-out: percentage phytotoxicity ECHCG
Experimental: as §1, §2

Setaria faberi (SETFA) [5] = assay: as above; conditions: 312 h, 13 days after application, read-out: percentage phytotoxicity SETFA
Experimental: as §1, §2

[6] = tested on: Zea mays (ZEAMX, corn, maize, e.g. volunteer corn); assay: as above; conditions: Zea mays, 312 h, 13 days after application, read-out: percentage phytotoxicity ZEAMX
Experimental: as §1, §2

Eleusine indica (ELEIN) = assay: Biological Example 3 glasshouse assay for herbicidal activity, using various adjuvant systems; conditions: post-emergence, 8 g/ha, 14 or 15 DAA; adjuvant 0.5% v/v + 1.0% AMS + 12.5% IPA: TEHP (A3-A7), Adigor (A8, P1, P2, P4), Hexamoll DINCH (A1)
Experimental: (§3) • Materials and Methods • Herbicide Application: Post-emergence foliar spray application, 200 L/ha, usually one or two replicates for the weeds (depending on application rate), and two replicates for soybean. • Climate: Standard warm conditions (tropical), in glasshouse. Specifically, the glasshouse bay conditions are 24° C./18° C. day/night; 16/8 hours light/dark; 65% humidity. • Plants: The herbicidal application takes place at the following growth stages for plants which include inter alia one or more of the following plants (usually the herbicidal application takes place on at least the following plants: DIGSA, ELEIN, SETFA, ZEAMX, GLXMA Nikko, and GLXMA TMG133, and often also either BRADC or BRAPP): • Brachiaria decumbens (BRADC)—growth stage (GS) 12 or 13 (or GS 12)—or, if BRADC is not used, then usually Brachiaria platyphylla (BRAPP)—growth stage 12 or 13 • Digitaria sanguinalis (DIGSA)—growth stage 12 or 13 • Eleusine indica (ELEIN)—growth stage 12 or 13 • Setaria faberi (SETFA)—growth stage 12 or 13 • Echinochloa crus-galli (ECHCG)—growth stage 12 or 13 • Sorghum halepense (annual) (SORHA)—growth stage 12 or 13 • Panicum dichotomiflorum (PANDI)—growth stage 12 or 13 • Zea mays (ZEAMX, maize/corn, e.g. can occur as volunteer corn) cultivar “Garland”—growth stage 12 or 13 • Glycine max (GLXMA, soybean) cultivar “Nikko”—growth stage: 1st trifoliate • Glycine max (GLXMA, soybean) cultivar “TMG133”—which is Roundup Ready™ glyphosate-tolerant soybean cultivar TMG133 (typically available from Monsanto in Brazil)—growth stage: 1st trifoliate. • Herbicidal Compositions Tested:
(§4) Each test compound is applied with one of the following adjuvant systems (all percentages are final concentrations in the aqueous spray mixture): • Adjuvant system 1: 0.5% v/v Adigor™*, 1.0% v/v AMS (ammonium sulphate) and 12.5% v/v IPA (isopropyl alcohol). • Adjuvant system 2: 0.5% v/v Hexamoll™ DINCH**, 1.0% v/v AMS (ammonium sulphate) and 12.5% v/v IPA (isopropyl alcohol). • Adjuvant system 3: 0.5% v/v tris-(2-ethylhexyl)phosphate (“TEHP”), 1.0% v/v AMS (ammonium sulphate) and 12.5% v/v IPA (isopropyl alcohol). ***Adigor™ (currently available in many countries from Syngenta) is an emulsifiable concentrate which consists of: • (i) ethoxylated alcohols, which typically includes ethoxylated higher alcohols (e.g. ethoxylates of alcohols wherein the alcohols are within the range of C12-C22); and • (ii) a mixture of heavy aromatic hydrocarbons, which typically includes (e.g. includes 50% or more by weight of the heavy aromatic hydrocarbons of) a mixture of naphthalenes each of which is substituted by one or more alkyls wherein the alkyl(s) in total have 1-4 carbon atoms per naphthalene molecule (e.g. Solvesso 200 ND™); and • (iii) about 47% w/w and/or about 45% w/v (with respect to the emulsifiable concentrate) of methylated rapeseed oil (rapeseed oil methyl ester) (e.g. Agnique ME 18 RD-F™), as an adjuvant. **Hexamoll™ DINCH™ is 1,2-cyclohexane dicarboxylic acid di-isononyl ester
(§5) Seeds of the weed (including volunteer) plants, typically including inter alia Digitaria sanguinalis (DIGSA), Eleusine indica (ELEIN), Setaria faberi (SETFA), Zea mays (ZEAMX, corn), and sometimes also [either Brachiaria decumbens (BRADC) or Brachiaria platyphylla (BRAPP)], are sown in seed trays (troughs) containing clay loam soil (pH 7.0, 2.2% organic matter, “Trough Mix A”); and soybean seed is sown in pots containing the same soil with 3 soybean seedlings per pot. The plants are sprayed with the test herbicide when they reach the growth stages mentioned above.
(§6) The test herbicidal solutions are prepared by mixing the appropriate aliquots of the test substance(s) and one of the adjuvant systems indicated above*** in deionised water to give the desired treatment concentration.
(§7) The herbicidal application is made as a foliar spray, using a tracksprayer. Following the herbicidal application, the plants are watered twice per day for the duration of the test. […]

[7] = tested on: Digitaria sanguinalis (DIGSA); assay: as above; conditions: post-emergence, 8 g/ha, 14 or 15 DAA; adjuvant 0.5% v/v + 1.0% AMS + 12.5% IPA: TEHP (A3-A7), Adigor (A8, P1, P2, P4), Hexamoll DINCH (A1)
Experimental: as §3, §4, §5, §6, §7

Setaria faberi (SETFA) [8] = assay: as above; conditions: post-emergence, 8 g/ha, 14 or 15 DAA; adjuvant 0.5% v/v + 1.0% AMS + 12.5% IPA: TEHP (A3-A7), Adigor (A8, P1, P2, P4), Hexamoll DINCH (A1)
Experimental: as §3, §4, §5, §6, §7

Zea mays (ZEAMX, corn) = assay: as above; conditions: post-emergence, 8 g/ha, 14 or 15 DAA; adjuvant 0.5% v/v + 1.0% AMS + 12.5% IPA: TEHP (A3-A7), Adigor (A8, P1, P2, P4), Hexamoll DINCH (A1)
Experimental: as §3, §4, §5, §6, §7

[9] = post-emergence, post-emergence, 30 g/ha

CC#Cc1cc(Br)c(C2C(=O)C3CCC(C3)C2=O)c(OC)c1 (centres unmarked) [Compound A3]
pest or weed control at 30 g/ha [1, 9]: 0%
pest or weed control at 250 g/ha ([1]; post-emergence, post-emergence): 10%
pest or weed control at 250 g/ha ([1]; pre-emergence, pre-emergence): 10%
pest or weed control at 30 g/ha ([2]; post-emergence, 30 g/ha): 70%
pest or weed control at 250 g/ha ([2]; post-emergence): 100%
pest or weed control at 250 g/ha ([2]; pre-emergence): 100%
pest or weed control at 30 g/ha [3, 9]: 0%
pest or weed control at 250 g/ha ([3]; post-emergence, post-emergence): 20%
pest or weed control at 250 g/ha ([3]; pre-emergence, pre-emergence): 20%
pest or weed control at 30 g/ha [4, 9]: 90%
pest or weed control at 250 g/ha ([4]; post-emergence, post-emergence): 100%
pest or weed control at 250 g/ha ([4]; pre-emergence, pre-emergence): 100%
pest or weed control at 30 g/ha (Setaria faberi (SETFA) [5]; [9]): 80%
pest or weed control at 250 g/ha (Setaria faberi (SETFA) [5]; post-emergence, post-emergence): 100%
pest or weed control at 250 g/ha (Setaria faberi (SETFA) [5]; pre-emergence, pre-emergence): 100%
pest or weed control at 30 g/ha [6, 9]: 90%
pest or weed control at 250 g/ha ([6]; post-emergence, post-emergence): 100%
pest or weed control at 250 g/ha ([6]; pre-emergence, pre-emergence): 100%
percentage control of (percentage phytotoxicity on) Eleusine indica (ELEIN) (Eleusine indica (ELEIN)): 55%

CC#Cc1cc(F)c(C2C(=O)C3CCC(C3)C2=O)c(OCCOC)c1 (centres unmarked) [Compound A5]
pest or weed control at 250 g/ha ([1]; post-emergence, post-emergence): 30%
pest or weed control at 250 g/ha ([1]; pre-emergence, pre-emergence): 20%
pest or weed control at 250 g/ha ([2]; post-emergence): 70%
pest or weed control at 250 g/ha ([2]; pre-emergence): 40%
pest or weed control at 250 g/ha ([3]; post-emergence, post-emergence): 30%
pest or weed control at 250 g/ha ([3]; pre-emergence, pre-emergence): 50%
pest or weed control at 250 g/ha ([4]; post-emergence, post-emergence): 100%
pest or weed control at 250 g/ha ([4]; pre-emergence, pre-emergence): 80%
pest or weed control at 250 g/ha (Setaria faberi (SETFA) [5]; post-emergence, post-emergence): 80%
pest or weed control at 250 g/ha (Setaria faberi (SETFA) [5]; pre-emergence, pre-emergence): 60%
pest or weed control at 250 g/ha ([6]; post-emergence, post-emergence): 100%
pest or weed control at 250 g/ha ([6]; pre-emergence, pre-emergence): 90%
percentage control of (percentage phytotoxicity on) Digitaria sanguinalis (DIGSA) [7]: 0%
percentage control of (percentage phytotoxicity on) Eleusine indica (ELEIN) (Eleusine indica (ELEIN)): 0%
percentage control of (percentage phytotoxicity on) Setaria faberi (SETFA) (Setaria faberi (SETFA) [8]): 25%

CC#Cc1cc(F)c(C2C(=O)C3CCC(C3)C2=O)c(OCC(F)(F)F)c1 (centres unmarked) [Compound A6]
pest or weed control at 250 g/ha ([1]; post-emergence, post-emergence): 20%
pest or weed control at 250 g/ha ([1]; pre-emergence, pre-emergence): 30%
pest or weed control at 250 g/ha ([2]; post-emergence): 80%
pest or weed control at 250 g/ha ([2]; pre-emergence): 60%
pest or weed control at 250 g/ha ([3]; post-emergence, post-emergence): 50%
pest or weed control at 250 g/ha ([3]; pre-emergence, pre-emergence): 60%
pest or weed control at 250 g/ha ([4]; post-emergence, post-emergence): 100%
pest or weed control at 250 g/ha ([4]; pre-emergence, pre-emergence): 80%
pest or weed control at 250 g/ha (Setaria faberi (SETFA) [5]; post-emergence, post-emergence): 80%
pest or weed control at 250 g/ha (Setaria faberi (SETFA) [5]; pre-emergence, pre-emergence): 70%
pest or weed control at 250 g/ha ([6]; post-emergence, post-emergence): 100%
pest or weed control at 250 g/ha ([6]; pre-emergence, pre-emergence): 80%
percentage control of (percentage phytotoxicity on) Digitaria sanguinalis (DIGSA) [7]: 5%
percentage control of (percentage phytotoxicity on) Eleusine indica (ELEIN) (Eleusine indica (ELEIN)): 5%
percentage control of (percentage phytotoxicity on) Setaria faberi (SETFA) (Setaria faberi (SETFA) [8]): 25%
percentage control of (percentage phytotoxicity on) Zea mays (ZEAMX, corn) (Zea mays (ZEAMX, corn)): 0%
